Assay results: US20210145802A1, “THERAPY FOR OPHTHALMOLOGICAL CONDITIONS” (WREN THERAPEUTICS LIMITED, priority 2018, published 2021)

Molecular target: T1, Aβ42 (Homo sapiens, UniProt P05067)
T1 construct: […]; made in house; host or cells: E. coli BL21 Gold (DE3)
Test: Seeded Aβ42 aggregation kinetics (2% or 50% preformed fibril seeds)
Assay type: biochemical
Details: 2 μM Aβ42
Method: For the seeded experiments, preformed fibrils were prepared just prior to the experiment. Kinetic experiments were set up as described above for 5 μM Aβ42 samples in 20 mM sodium phosphate buffer, pH 8 with 200 μM EDTA, 0.02% NaN3 and 20 μM ThT. The ThT fluorescence was monitored for 3 hours to verify the formation of fibrils. Samples were then collected from the wells into low-binding tubes. Under the considered conditions (i.e. 5 μM Aβ42), the monomer concentration is negligible at equilibrium. The final concentration of fibrils, in monomer equivalents, was considered equal to the initial concentration of monomer. Fibrils were then added to freshly prepared monomer in order to reach either 2% or 50% final concentration of seeds in the absence or the presence of Netoglitazone.
Inhibitors can interfere with the aggregation process by inhibiting one or more of the individual microscopic steps. We can identify the microscopic events that are inhibited by the chemical compounds by fitting the integrated rate law (Eq. (54) in Cohen et al., J Chem Phys 135, 065106) to the macroscopic aggregation profiles and comparing the fitted set of microscopic rate constants (k+k2 and k+kn in the absence of pre-formed seeds; k+ and k2 in the presence of pre-formed seeds where primary nucleation is bypassed) required to describe the time evolution of the fibril formation in the absence and presence of Netoglitazone. The analysis is analogous to that carried out in Habchi et al., Proc Natl Acad Sci USA; 114(2):E200-E208, 2017 to study the effects of other small molecules on Aβ42 aggregation.

T1 sequence (P05067 671-713): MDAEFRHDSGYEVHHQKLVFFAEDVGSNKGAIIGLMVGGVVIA

O=C1NC(=O)C(Cc2ccc3cc(OCc4ccccc4F)ccc3c2)S1 (stereo not drawn) [Netoglitazone]
decrease of rate constant of surface-catalyzed secondary nucleation (k2) (2% seeds, 20-fold excess): about 80%
inhibition of secondary pathways (k2k+) with 2% preformed seeds (2% seeds, range of concentrations): concentration-dependent inhibition of secondary pathways
effect on aggregation kinetics with 50% preformed seeds (elongation) (50% seeds, up to 20-fold excess): did not affect the aggregation kinetics
